Reference: US11564394B2, “Distorted gold (I)-phosphine complexes and methods for use as antifungal agents” (University of Kentucky Research Foundation, priority 2019, dated 2023)

Legend:
[1] = test system: C. glabrata ATCC 2001 (strain H); conditions: subcultures exposed to ½ MIC
[2] = test system: C. albicans ATCC MYA-2876(S) (strain E); test: MIC determination (broth microdilution); assay type: cell-based, Candida albicans; conditions: strain E = C. albicans ATCC MYA-2876(S); MIC-0; 48 h; listed as printed beside letter F
[3] = test system: C. neoformans CN3 (strain P); test: MIC determination (broth microdilution); assay type: cell-based, Cryptococcus neoformans; conditions: MIC-0, 72 h at 35° C.
[4] = test system: C. albicans ATCC 10231(R) (strain B); assay type: cell-based, Candida albicans
[5] = test system: C. neoformans ATCC MYA-85 (strain M); test: MIC determination (broth microdilution); assay type: cell-based, Cryptococcus neoformans; conditions: strain M = C. neoformans ATCC MYA-85; MIC-0; 72 h at 35° C.
[6] = test system: A. terreus ATCC MYA-3633 (strain R); assay type: cell-based, Aspergillus terreus; conditions: strain R = A. terreus ATCC MYA-3633; MIC-0; 72 h at 35° C.
[7] = test system: C. glabrata ATCC 2001 (strain H) biofilm; test: Prevention of biofilm formation (XTT); assay type: cell-based, Candida glabrata; conditions: treated at 0 h
[8] = test system: C. auris AR Bank # 0381 (strain I); test: MIC determination (broth microdilution); assay type: cell-based, Candida auris; conditions: strain I = C. auris AR Bank # 0381; MIC-0; 48 h (CAS read at 24 h)
[9] = test system: C. albicans ATCC 10231 (strain B) biofilm; test: Prevention of biofilm formation (XTT); assay type: cell-based, Candida albicans; conditions: treated at 0 h, 90% decrease in metabolic activity (XTT)
[10] = test system: C. auris AR Bank # 0382 (strain II); test: MIC determination (broth microdilution); assay type: cell-based, Candida auris; conditions: strain II = C. auris AR Bank # 0382; MIC-0; 48 h (CAS read at 24 h)
[11] = test system: C. parapsilosis ATCC 22019 (strain J); test: MIC determination (broth microdilution); assay type: cell-based; conditions: strain J = C. parapsilosis ATCC 22019; MIC-0; 48 h; listed as printed beside letter K
[12] = test system: C. auris AR Bank # 0383 (strain III); test: MIC determination (broth microdilution); assay type: cell-based, Candida auris; conditions: strain III = C. auris AR Bank # 0383; MIC-0; 48 h (CAS read at 24 h)
[13] = test system: C. glabrata ATCC 2001 (strain H) pre-formed biofilm; test: Disruption of pre-formed biofilm (XTT); assay type: cell-based, Candida glabrata
[14] = test system: C. auris AR Bank # 0390 (strain L) biofilm; assay type: cell-based, Candida auris; conditions: treated at 0 h, XTT
[15] = test system: C. albicans ATCC MYA-1237(R) (strain C); assay type: cell-based, Candida albicans; conditions: strain C = C. albicans ATCC MYA-1237(R); MIC-0; 48 h; listed as printed beside letter D
[16] = test system: F. graminearum 053 (strain T); assay type: cell-based, Fusarium graminearum; conditions: strain T = F. graminearum 053; MIC-0; room temperature, 5 days
[17] = test system: C. auris AR Bank # 0386 (strain V); test: MIC determination (broth microdilution); assay type: cell-based, Candida auris; conditions: strain V = C. auris AR Bank # 0386; MIC-0; 48 h (CAS read at 24 h)
[18] = test system: C. albicans ATCC 90819(R) (strain G); assay type: cell-based, Candida albicans; conditions: strain G = C. albicans ATCC 90819(R); MIC-0; 48 h; listed as printed without letter, below G
[19] = test system: C. auris AR Bank # 0384 (strain K) biofilm; assay type: cell-based, Candida auris; conditions: treated at 0 h, XTT
[20] = test system: C. neoformans CN1 (strain N); test: MIC determination (broth microdilution); assay type: cell-based, Cryptococcus neoformans; conditions: MIC-0, 72 h at 35° C.
[21] = test system: C. auris AR Bank # 0388 (strain VII); test: MIC determination (broth microdilution); assay type: cell-based, Candida auris; conditions: strain VII = C. auris AR Bank # 0388; MIC-0; 48 h (CAS read at 24 h)
[22] = test system: C. auris AR Bank # 0390 (strain L); test: MIC determination (broth microdilution); assay type: cell-based, Candida auris; conditions: strain L = C. auris AR Bank # 0390; MIC-0; 48 h (CAS read at 24 h); Table 1 row printed without letter, below L; also in Table 2

## bis-[1,2-bis[(2S,5S)-2,5-dimethylphospholano]benzene]gold(I) [Compound 4]
[1]
  changes in MIC values over fifteen serial passages: no significant changes in MIC values
[2]
  MIC: 0.98 µg/mL
  MIC (in parentheses): 1.2 µM
[3]
  MIC: 0.98 µg/mL
  MIC (in parentheses): 1.2 µM
[4]
  MIC: 1.95 (2.3) μg/mL
  MIC (in parentheses): 1.95 (2.3) μM
[5]
  MIC: 0.98 µg/mL
  MIC (in parentheses): 1.2 µM
[6]
  MIC: 1.95 µg/mL
  MIC (in parentheses): 2.3 µM
[7]
  Biofilm prevention SMIC90: 3.9 µg/mL
[8]
  MIC: 0.98 µg/mL
  MIC (in parentheses): 1.2 µM
[9]
  Biofilm prevention SMIC90: 3.9 µg/mL
[10]
  MIC: 1.95 µg/mL
  MIC (in parentheses): 2.3 µM
[11]
  MIC: 0.98 µg/mL
  MIC (in parentheses): 1.2 µM
[12]
  MIC: 1.95 µg/mL
  MIC (in parentheses): 2.3 µM
[13]
  SMIC90 of pre-formed biofilm relative to MIC with planktonic cells: 4 fold
[13]; biofilm treated at 24 h, XTT
  Pre-formed biofilm SMIC90: 7.8 µg/mL
[14]
  Biofilm prevention SMIC90: 3.9 µg/mL
[15]
  MIC: 0.98 µg/mL
  MIC (in parentheses): 1.2 µM
[16]
  MIC: 3.9 µg/mL
  MIC (in parentheses): 4.6 µM
[17]
  MIC: 1.95 µg/mL
  MIC (in parentheses): 2.3 µM
[18]
  MIC: 0.98 µg/mL
  MIC (in parentheses): 1.2 µM
[19]
  Biofilm prevention SMIC90: 3.9 µg/mL
[20]
  MIC: 0.98 µg/mL
  MIC (in parentheses): 1.2 µM
[21]
  MIC: 1.95 µg/mL
  MIC (in parentheses): 2.3 µM
[22]
  MIC: 7.8 µg/mL
  MIC (in parentheses): 9.2 µM
